Earlier results, collected in patent US20130040971A1, “6-CYCLOALKYL-PYRAZOLOPYRIMIDINONES FOR THE TREATMENT OF CNS DISORDERS” (Boehringer Ingelheim International GmbH, priority 2011, published 2013).

target: T1, Murine PDE9A (Mus musculus, UniProt O70628); conditions: concentrations below 200 micromolar
T1 sequence (O70628 1-534): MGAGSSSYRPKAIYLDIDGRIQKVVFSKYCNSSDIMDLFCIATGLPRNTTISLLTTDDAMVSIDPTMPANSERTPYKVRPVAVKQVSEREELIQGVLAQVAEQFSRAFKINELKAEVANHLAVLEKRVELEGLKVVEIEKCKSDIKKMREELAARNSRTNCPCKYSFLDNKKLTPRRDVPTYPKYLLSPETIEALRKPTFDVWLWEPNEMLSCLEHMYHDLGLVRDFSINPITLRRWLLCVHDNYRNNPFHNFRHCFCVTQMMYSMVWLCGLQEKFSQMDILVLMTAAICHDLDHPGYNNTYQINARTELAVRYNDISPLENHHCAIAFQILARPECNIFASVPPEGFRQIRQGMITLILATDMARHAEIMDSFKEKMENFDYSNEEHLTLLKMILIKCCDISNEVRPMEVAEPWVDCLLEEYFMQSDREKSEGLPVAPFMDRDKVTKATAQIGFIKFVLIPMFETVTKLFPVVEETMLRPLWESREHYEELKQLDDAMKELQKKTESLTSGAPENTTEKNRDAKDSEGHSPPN

inhibition of murine PDE9A	SMILES
not inhibited	CC(C)Cn1c(=O)n(C)c(=O)c2[nH]cnc21 [IBMX]

target: human PDE9A (Homo sapiens, UniProt O76083); conditions: concentrations of up to 100 micromolar (μM)
Sequence (O76083 whole entry): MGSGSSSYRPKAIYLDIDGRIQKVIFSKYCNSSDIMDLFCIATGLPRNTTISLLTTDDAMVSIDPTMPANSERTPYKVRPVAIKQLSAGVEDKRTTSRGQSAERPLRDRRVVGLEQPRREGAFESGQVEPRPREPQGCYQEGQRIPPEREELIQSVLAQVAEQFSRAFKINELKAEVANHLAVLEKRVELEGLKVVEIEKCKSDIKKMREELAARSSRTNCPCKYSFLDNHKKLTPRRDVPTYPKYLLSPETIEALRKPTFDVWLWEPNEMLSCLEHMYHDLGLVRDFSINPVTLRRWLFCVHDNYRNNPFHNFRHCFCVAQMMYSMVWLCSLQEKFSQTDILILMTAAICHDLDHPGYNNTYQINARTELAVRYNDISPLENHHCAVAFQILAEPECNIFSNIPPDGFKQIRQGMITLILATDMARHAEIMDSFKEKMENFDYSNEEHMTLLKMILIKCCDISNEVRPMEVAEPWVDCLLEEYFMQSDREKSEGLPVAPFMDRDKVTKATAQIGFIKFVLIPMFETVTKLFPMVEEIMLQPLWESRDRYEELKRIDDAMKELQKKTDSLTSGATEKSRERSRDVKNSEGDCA

inhibition on the isolated enzyme (human PDE9A)	SMILES
no inhibition	CC(=O)Nc1ccc(-c2c[nH]c(=O)cn2)cc1 [SKF94120]
no inhibition	COc1ccc(C2CNC(=O)C2)cc1OC1CCCC1 (stereo not drawn) [rolipram]
no inhibition	OCCN(CCO)c1nc(N2CCCCC2)c2nc(N(CCO)CCO)nc(N3CCCCC3)c2n1 [dipyridamole]
no inhibition	CC(C)Cn1c(=O)n(C)c(=O)c2[nH]cnc21 [IBMX]
no inhibition	CCOC(=O)C1=C[C@]2(CC)CCCN3CCc4c(n1c1ccccc41)[C@@H]32 [vinpocetine]
